Assays:
[1] = cited from earlier work; for times sweeter than sucrose: sweetness relative to sucrose/sugar
[2] = Taste testing of sweetener compositions in water by trained descriptive panel; assay type: in vivo, human; conditions: in water at room temperature; 12-point scale; aftertaste at 30 seconds
Description: A panel of trained and experienced descriptive panelists (Food Marketing Support Services, Inc.) tasted, described and documented sensory behavior of selected sweetener compositions in water at ambient (room) temperature. The sweetener samples tested were: sugar (100%; Imperial Sugar); Truvia (100%), a consumer brand Stevia sweetener containing a mixture erythritol and Rebiana; Reb-A 97 (100%; Pure Circle), a sugar (75% reduction)—rebaudioside A blended or granulized mixture; a sugar (50% reduction)—rebaudioside A blended or granulized mixture; a sugar/rebaudioside A co-crystallization product in accordance with the instantly described process and the resultant product with a 50% calorie reduction (Co-Crystal (50% Reduction)); and, a sugar/rebaudioside A co-crystallization product in accordance with the instantly described process and the resultant product with a 75% calorie reduction (Co-Crystal (75% Reduction).
Sample Preparation: On the day of the testing panel, a predetermined weight of sugar or sweetener was weighed out. […]
The beaker is gently swirled five (5) times, and the watch glass cover is removed. […] Sweetness was evaluated relative to standardized concentrations of sucrose in water. Samples were also evaluated for character nuances and quantifying attribute intensities such as residual mouth sensations and aftertastes, using a 12-point scale. […]

| SMILES | times sweeter than sucrose [1] | flavor/taste profile compared with pure sugar [2] | astringency, bitterness and aftertaste among diterpenoid glycoside sweeteners of Stevia extracts ([1]; in vivo) |
| --- | --- | --- | --- |
| C=C1C[C@@]23CC[C@H]4[C@@](C)(CCC[C@@]4(C)C(=O)O[C@@H]4O[C@H](CO)[C@@H](O)[C@H](O)[C@H]4O)[C@@H]2CC[C@]1(O[C@@H]1O[C@H](CO)[C@@H](O)[C@H](O)[C@H]1O[C@@H]1O[C@H](CO)[C@@H](O)[C@H](O)[C@H]1O)C3 [stevioside] | about 200 times | – | – |
| C=C1C[C@@]23CC[C@H]4[C@@](C)(CCC[C@@]4(C)C(=O)O[C@@H]4O[C@H](CO)[C@@H](O)[C@H](O)[C@H]4O)[C@@H]2CC[C@]1(O[C@@H]1O[C@H](CO)[C@@H](O)[C@H](O[C@@H]2O[C@H](CO)[C@@H](O)[C@H](O)[C@H]2O)[C@H]1O[C@@H]1O[C@H](CO)[C@@H](O)[C@H](O)[C@H]1O)C3 [rebaudioside A] | 200-300 times | most extreme flavor profile across the array | the least astringent, the least bitter, and with the least persistent aftertaste |

Reference: patent publication US10501817B2, “Process for the manufacture of co-crystallized sucrose natural sweeteners and the products thereof” (IMPERIAL SUGAR COMPANY, priority 2010, dated 2019)
